Measurements from patent US12581252B2, “Substituted pyrrolo[3,4-b]pyridines as PI3K-α inhibitors” (Relay Therapeutics, Inc., priority 2020, dated 2026).

target: H1047R PIK3CA enzyme (Homo sapiens, UniProt P42336, H1047R); test: ADP-Glo Biochemical PIK3CA Kinase Assay
Sequence (P42336 whole entry H1047R): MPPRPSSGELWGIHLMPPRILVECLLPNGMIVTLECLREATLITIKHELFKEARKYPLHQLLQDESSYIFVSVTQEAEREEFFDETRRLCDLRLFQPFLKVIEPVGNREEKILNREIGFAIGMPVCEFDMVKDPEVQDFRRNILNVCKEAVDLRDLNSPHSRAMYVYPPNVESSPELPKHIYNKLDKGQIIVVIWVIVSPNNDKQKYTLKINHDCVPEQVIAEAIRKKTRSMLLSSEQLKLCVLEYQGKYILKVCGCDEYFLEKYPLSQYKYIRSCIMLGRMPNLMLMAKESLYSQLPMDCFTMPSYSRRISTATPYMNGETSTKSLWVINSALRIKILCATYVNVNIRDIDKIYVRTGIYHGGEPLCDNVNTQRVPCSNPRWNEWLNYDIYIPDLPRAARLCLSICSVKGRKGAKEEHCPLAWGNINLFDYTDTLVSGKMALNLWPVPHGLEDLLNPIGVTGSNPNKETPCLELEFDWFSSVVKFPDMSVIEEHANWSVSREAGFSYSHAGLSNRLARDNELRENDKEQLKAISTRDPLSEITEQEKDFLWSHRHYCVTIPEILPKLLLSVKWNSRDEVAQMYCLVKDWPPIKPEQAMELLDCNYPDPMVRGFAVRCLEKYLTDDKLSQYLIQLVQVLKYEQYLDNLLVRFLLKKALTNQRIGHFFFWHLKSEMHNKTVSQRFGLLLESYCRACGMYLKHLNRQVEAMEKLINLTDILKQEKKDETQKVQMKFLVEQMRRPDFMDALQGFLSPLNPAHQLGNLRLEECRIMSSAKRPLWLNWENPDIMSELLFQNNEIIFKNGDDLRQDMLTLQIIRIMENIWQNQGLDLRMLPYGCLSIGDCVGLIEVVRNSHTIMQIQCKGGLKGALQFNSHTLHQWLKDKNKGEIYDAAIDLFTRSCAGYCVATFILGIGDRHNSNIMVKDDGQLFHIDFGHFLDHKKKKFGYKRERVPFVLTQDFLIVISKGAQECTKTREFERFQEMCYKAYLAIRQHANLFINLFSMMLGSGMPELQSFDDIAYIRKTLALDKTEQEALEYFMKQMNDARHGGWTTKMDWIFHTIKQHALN
Sequence (P27986 whole entry partner): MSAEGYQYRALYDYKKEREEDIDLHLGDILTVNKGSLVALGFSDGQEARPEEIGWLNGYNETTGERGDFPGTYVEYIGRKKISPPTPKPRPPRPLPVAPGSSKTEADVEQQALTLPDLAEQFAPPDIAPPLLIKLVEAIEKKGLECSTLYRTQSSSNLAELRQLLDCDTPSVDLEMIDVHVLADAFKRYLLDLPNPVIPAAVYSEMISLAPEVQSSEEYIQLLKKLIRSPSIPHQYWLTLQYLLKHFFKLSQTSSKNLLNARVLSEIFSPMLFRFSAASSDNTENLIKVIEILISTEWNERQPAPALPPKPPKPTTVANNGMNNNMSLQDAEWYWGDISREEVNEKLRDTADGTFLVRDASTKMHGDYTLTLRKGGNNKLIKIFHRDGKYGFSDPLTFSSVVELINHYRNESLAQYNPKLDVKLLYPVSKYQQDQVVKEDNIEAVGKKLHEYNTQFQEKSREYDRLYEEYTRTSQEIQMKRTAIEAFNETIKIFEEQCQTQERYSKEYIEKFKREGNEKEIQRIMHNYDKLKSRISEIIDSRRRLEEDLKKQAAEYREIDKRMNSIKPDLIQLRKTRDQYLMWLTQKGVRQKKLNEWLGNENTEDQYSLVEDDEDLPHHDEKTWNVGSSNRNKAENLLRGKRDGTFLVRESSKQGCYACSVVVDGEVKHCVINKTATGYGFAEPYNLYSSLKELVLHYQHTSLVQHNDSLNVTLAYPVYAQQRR

| Compound | IC50 |
| --- | --- |
| O=C1NC(c2cc(F)ccc2Cl)c2c(NC(=O)c3nccc4ccccc34)cc(Br)cc21 (stereo not shown) [Compound I-638] | 10000 to 100000 nM |
| O=C(CCc1ccccc1C(F)(F)F)Nc1cc(Br)cc2c1C(c1cc(F)ccc1Cl)NC2=O (stereo not shown) [Compound I-600] | 1000 to 10000 nM |
| O=C1N[C@@H](c2cc(F)ccc2Cl)c2c(NC(=O)N3C[C@](O)(C(F)(F)F)c4cc(F)ccc43)cc(-n3ccnn3)cc21 (single isomer, unassigned) [Compound I-2550] | 1000 to 10000 nM |
| O=C1NC(c2cc(F)ccc2Cl)c2c(NC(=O)C3CCCC(C(F)(F)F)C3)cc(Br)cc21 (mixture of isomers) [Compound I-1323] | 100 to 500 nM |
| O=C1NC(c2cc(F)ccc2Cl)c2c(/C=C/c3ccccc3)cccc21 (stereo not shown) [Compound I-2106] | 10000 to 100000 nM |
| NC(=O)Cc1cc(NC(=O)c2cc(F)cc(C(F)(F)F)c2)c2c(c1)C(=O)NC2c1cc(F)ccc1Cl (stereo not shown) [Compound I-578] | ≤ 100 nM |
| Nc1nc2cc(-c3cc(NC(=O)c4cc(F)cc(C(F)(F)F)c4)c4c(c3)C(=O)N[C@H]4c3cc(F)ccc3Cl)ccn2n1 [Compound I-1447] | ≤ 100 nM |
| O=C(Nc1cc(Cl)nc2c1[C@@H](c1cc(F)ccc1Cl)NC2=O)c1cc(F)cc(C(F)(F)F)c1 [Compound I-617] | ≤ 100 nM |
| O=C(Nc1cc(Br)cc2c1C(c1cc(F)ccc1Cl)NC2=O)c1cc2ccccc2[nH]1 (stereo not shown) [Compound I-1610] | 1000 to 10000 nM |
| N#CC[C@@H](O)c1cc(NC(=O)c2cc(F)cc(C(F)(F)F)c2)c2c(c1)C(=O)N[C@@H]2c1cc(F)ccc1Cl (single isomer, unassigned) [Compound I-1391] | 1000 to 10000 nM |
| Cc1ccccc1C1NC(=O)c2cc(-c3cnoc3)cc(NC(=O)c3csc4ccccc34)c21 (stereo not shown) [Compound I-141] | ≤ 100 nM |
| CC(N1C[C@H](O)C[C@H]1C(=O)Nc1cccc2c1C(c1cc(F)ccc1Cl)NC2=O)C(F)(F)F (mixture of isomers) [Compound I-2407] | 10000 to 100000 nM |
| CC1(C)CC(COc2cc(NC(=O)c3cc(F)cc(C(F)(F)F)c3)c3c(c2)C(=O)NC3c2cc(F)ccc2Cl)O1 (stereo not shown) [Compound I-873] | 100 to 500 nM |
| N#Cc1ncccc1-c1cc(NC(=O)c2cc(F)cc(C(F)(F)F)c2)c2c(c1)C(=O)NC2c1cc(F)ccc1Cl (stereo not shown) [Compound I-1214] | ≤ 100 nM |
| Cn1cc(-c2cc(NC(=O)c3cc(F)cc(C(F)(F)F)c3)c3c(c2)C(=O)NC3c2cc(F)ccc2Cl)c(C#N)n1 (stereo not shown) [Compound I-1656] | ≤ 100 nM |
| Cc1ccccc1C1NC(=O)c2cccc(NC(=O)c3cnc4ccc(Cl)cn34)c21 (stereo not shown) [Compound I-47] | 10000 to 100000 nM |
| O=C1N[C@@H](c2cc(F)ccc2Cl)c2c(NC(=O)C3(c4cc(F)cc(C(F)(F)F)c4)CCCC3)cc(Br)cc21 [Compound I-2071] | 10000 to 100000 nM |
| O=C(Nc1cc(Br)cc2c1C(c1cc(F)ccc1Cl)NC2=O)c1ccc(OC(F)(F)F)cc1 (stereo not shown) [Compound I-524] | 1000 to 10000 nM |
| O=C(Nc1cccc2c1C(C1CCCC(O)C1)NC2=O)c1cc(F)cc(C(F)(F)F)c1 (mixture of isomers) [Compound I-2227] | 10000 to 100000 nM |
| Cc1nc(C)c(-c2cc(NC(=O)c3cc(F)cc(Cl)c3)c3c(n2)C(=O)NC3c2cc(F)ccc2Cl)s1 (stereo not shown) [Compound I-459] | ≤ 100 nM |
| O=C1NC(c2cc(F)ccc2Cl)c2c(NC(=O)N3CC4(CCC4)c4ccccc43)cc(Br)cc21 (stereo not shown) [Compound I-1383] | 100 to 500 nM |
| O=C1N[C@H](c2cc(F)ccc2Cl)c2c(NC(=O)N3C[C@](O)(C(F)F)c4cc(F)ccc43)cc(F)cc21 (single isomer, unassigned) [Compound I-2634] | 1000 to 10000 nM |
| O=C(Nc1cc(-c2ccc3ncnn3c2)cc2c1[C@H](c1cc(F)ccc1Cl)NC2=O)c1ccc(F)c(OC(F)(F)F)c1 (stereo in doubt) [Compound I-1107] | 100 to 500 nM |
| [2H]C([2H])(c1cc(NC(=O)c2cc(F)cc(C(F)(F)F)c2)c2c(c1)C(=O)N[C@H]2c1cc(F)ccc1Cl)S(C)(=O)=O (single isomer, unassigned) [Compound I-1789] | ≤ 100 nM |
| CC(C)(O)c1cc(NC(=O)N2CCc3ccccc32)c2c(c1)C(=O)N[C@@H]2c1cc(F)ccc1Cl [Compound I-714] | 10000 to 100000 nM |
